What was measured:
CD43 = experiment: Cell surface expression of CD43 in human neutrophils (immunofluorescence flow cytometry); format: cell-based; conditions: Medium = 100
Description: (§1) Isolation and treatment of neutrophils.
(§2) Monoclonal antibodies. […] The antibodies are commercially available.
(§3) Immunofluorescence flow cytometry. […] Results were expressed as relative MFI (rMFI), such that
(§4) rMFI=(MFIagent×100)/MFImedium
(§5) Background fluorescence was substracted from all values.

CD44 = experiment: Cell surface expression of CD44 in human neutrophils (immunofluorescence flow cytometry); format: cell-based; conditions: Medium = 100
Description: as §1, §2, §3, §4, §5

[1] = system: bentonite-induced skin edema in mice; experiment: Bentonite-induced skin edema in mice; format: in vivo; conditions: for Area (area below the curve of difference between right and left pad diameter) / Inhibition of the inflammatory process: mice; for Inhibition of the inflammatory process: versus inflamed control
Description: Mice were individually identified with an ear code and were kept in groups of 6 per cage (Makrolon: 47.6×22.7×14.5 cm). Each cage was individually labelled with the n^o. of the study, type of treatment, doses used and route of administration, as well as the name of the director of the study, number and gender of contained animals, date of arrival and of the beginning of the experiment.
The animals had free access to mouse standard chow (UAR A04C; Usine d'Alimentation Rationelle, 91360-Villemoisson sur Orge, Francia; lot nos. 70520 and 70722). Drinking water access was ad libitum. The water, supplied by the Compañia de Aguas de Sabadell, S.A., is routinely analysed for the presence of possible contaminants. The temperature in the animal rooms was 22±3° C., with sporadic peaks of 26° C.; air humidity was 60±10%, with sporadic peaks of 80%. Daily light (between 7:00 h and 19:00 h) and dark phases were installed automatically.
Upon arrival, all animals were allowed to rest in the facilities for 8 days before use in the experiment. Table 2 indicates the six random groups of 10 mice each were set for experimentation.
The diameter of both hind pads of all mice was measured at day 0 and set as the basal value. Edema was then induced by injecting s.c. 13.3 mg/ml bentonite in 0.03 ml PBS into the right food pad. The corresponding mice were given daily the different compounds orally for 21 days. The inflamed control group was given 0.2 ml PBS only. The diameter of hind pads, as well as the body weight, was then measured every other day.
In each experimental group the average value, the standard deviation (SD) and the standard error was determined for the two parameters studied (hind pad diameter and body weight). The factor variance analysis (FVA) was used to compare the values obtained in the different groups. Where statistically significant differences were observed, the Duncan-Kramer test for a p<0.05 was applied.
The area below the curves corresponding to the diameters of the right and left pads was calculated and the evolution of the difference between them were plotted (FIGS. 7 and 8). The anti-inflammatory capacity of the different substances was evaluated as the extent of inhibition of the inflammatory process that was calculated with the formula [formula]
where C is the area below the inflammed control group and T the area below the different treatment groups.

[2] = system: PGE2 production in murine fibroblasts 3T3; experiment: PGE2 measurement in 3T3 cells (enzyme immunoassay); format: cell-based, Mouse
Protocol: Cell culture. Human promyelocytic HL-60 cells and promonocytic U937 cells were grown in RPMI-1640 culture medium supplemented with 10% (v/v) heat-inactivated fetal calf serum, 2 mM L-glutamine, 100 units/ml penicillin and 24 μg/ml gentamicin. Mouse 3T3 fibroblasts were grown in Dulbecco's modified Eagle's medium (DMEM) supplemented with 10% (v/v) heat-inactivated fetal calf serum, 2 mM L-glutamine, 100 units/ml penicillin and 24 μg/ml gentamicin. Cells were incubated at 37° C. in a humidified atmosphere at 5% CO2 and 95% air.
Prostaglandin E2 (PGE2) measurement. 3T3 cells (1.5×10^5 in 100 μl in complete DMEM culture medium) were incubated overnight at 37° C. (5% CO2) in 96-well microtitre plates (tissue-culture grade). Then, the distinct agents were added in 100 μl complete DMEM culture medium for 20 min at 37° C. After washing thoroughly the cells with PBS, cells were lysed and intracellular PGE2 was measured using an enzyme immunoassay kit (Amersham Pharmacia Biotech, Buckinghamshire, UK) following the manufacturer's instructions. Data obtained in duplicate measurements were converted into actual amounts of PGE2 using a calibration curve run in parallel with defined amounts of PGE2.

[3] = system: PGE2 synthesis in human mucosal gastric biopsies; experiment: Ex vivo PGE2 synthesis in human mucosal gastric biopsies
Protocol: The ability of the gastric mucosa to generate prostaglandins estimates total cyclooxygenase (COX) activity (COX-1 plus any COX-2). To measure ex vivo prostaglandin E2 (PGE2) synthesis, normal gastric mucosal biopsies were immediately placed in Ependorff tubes containing phosphate-buffered saline (PBS). […] Each mucosal gastric biopsy was cut into different pieces (about 1 mg weight) that were subsequently weighed and incubated in the absence or in the presence of the distinct agents indicated in the corresponding Table for 20 min at 37° C. in 200 μl Hepes-glucose buffer. Then cells were mucosal gastric samples were pelleted by centrifugation, lysed and intracellular PGE2 was measured using an enzyme immunoassay kit (Amersham Pharmacia Biotech, Buckinghamshire, UK) following the manufacturer's instructions. Prostaglandin synthesis is expressed as picograms of PGE2 synthesised per mg of tissue incubation. Each experiment corresponded to the use of one biopsy, in order to avoid variability among different biopsies. Normal volunteers without a previous pharmacological treatment were selected for these assays. The normal gastroduodenal mucosa was visually assessed by endoscopy.
Human mucosal gastric biopsies were cut into about 1 mg pieces, incubated with the indicted agents (10 μM) for 20 min at 37° C. in Hepes-glucose buffer, and then the intracellular content of PGE2 was determined as described in the Methods section. Untreated control samples were run in parallel. Data are shown as mean Values+S.D. from three independent experiments.

[4] = 2.5 mg/kg orally daily for 21 days
[5] = 5 mg/kg orally daily for 21 days

Structure (SMILES): CCCCCCCCCCCCCCCCCCOCC(COP(=O)([O-])OCC[N+](C)(C)C)OC (stereo not shown) [IEC01, Edelfosine]
- CD43 cell surface expression (rMFI) (CD43; 10 ng/ml): 87.5 ± 2.5
- CD43 cell surface expression (rMFI) (CD43; 100 ng/ml): 63 ± 8
- CD43 cell surface expression (rMFI) (CD43; 500 ng/ml): 53 ± 5
- CD43 cell surface expression (rMFI) (CD43; 1 μg/ml): 33 ± 8
- CD43 cell surface expression (rMFI) (CD43; 5 μg/ml): 28 ± 7
- CD44 cell surface expression (rMFI) (CD44; 10 ng/ml): 97 ± 2
- CD44 cell surface expression (rMFI) (CD44; 100 ng/ml): 84 ± 4
- CD44 cell surface expression (rMFI) (CD44; 500 ng/ml): 75 ± 7
- CD44 cell surface expression (rMFI) (CD44; 1 μg/ml): 48 ± 9
- CD44 cell surface expression (rMFI) (CD44; 5 μg/ml): 40 ± 8
- times more efficient in inhibiting inflammation than indomethacin, at the molecular level ([1]; 2.5 mg/kg versus indomethacin 2 mg/kg, taking molecular weights into account): 2 times
- Area (area below the curve of difference between right and left pad diameter) [1, 4]: 5.9 ± 0.45 A.U.
- Inhibition of the inflammatory process [1, 4]: 23.5%
- Area (area below the curve of difference between right and left pad diameter) [1, 5]: 7.0 ± 1.34 A.U.
- Inhibition of the inflammatory process [1, 5]: 9.7%
- pg PGE2 (intracellular) ([2]; 3T3 cells, 10 μM, 20 min at 37° C., Control 112 ± 21): 148 ± 22 pg
- effect on PGE2 production (in words) ([2]; 3T3 fibroblasts, ionomycin-induced PGE2): no significant inhibition
- pg PGE2/mg (weight) ([3]; human mucosal gastric biopsies, agents 10 μM, 20 min at 37° C., Control 115 ± 26, mean ± S.D., three experiments): 131 ± 29 pg PGE2/mg
- effect on mucosal PGE2 synthesis (in words) ([3]; normal mucosal gastric biopsies, ex vivo): did not inhibit
